Laboratory results: ChEMBL document CHEMBL1131884, “Dicationic 2-fluorenonylcarbapenems: potent anti-MRS agents with improved solubility and pharmacokinetic properties” (Bioorg Med Chem Lett, 1999)

What was measured:
Staphylococcus aureus = assay: Antibacterial activity against methicillin-resistant Staphylococcus aureus (MRSA); type: functional
MecA = biological target: T1, MecA (Staphylococcus aureus, UniProt Q7DHH4); assay: Binding affinity against PBP2a receptor by competition analysis with [3H]benzylpenicillin using cell membrane fractions from the MRSA COL strain.
T1 sequence (Q7DHH4 whole entry): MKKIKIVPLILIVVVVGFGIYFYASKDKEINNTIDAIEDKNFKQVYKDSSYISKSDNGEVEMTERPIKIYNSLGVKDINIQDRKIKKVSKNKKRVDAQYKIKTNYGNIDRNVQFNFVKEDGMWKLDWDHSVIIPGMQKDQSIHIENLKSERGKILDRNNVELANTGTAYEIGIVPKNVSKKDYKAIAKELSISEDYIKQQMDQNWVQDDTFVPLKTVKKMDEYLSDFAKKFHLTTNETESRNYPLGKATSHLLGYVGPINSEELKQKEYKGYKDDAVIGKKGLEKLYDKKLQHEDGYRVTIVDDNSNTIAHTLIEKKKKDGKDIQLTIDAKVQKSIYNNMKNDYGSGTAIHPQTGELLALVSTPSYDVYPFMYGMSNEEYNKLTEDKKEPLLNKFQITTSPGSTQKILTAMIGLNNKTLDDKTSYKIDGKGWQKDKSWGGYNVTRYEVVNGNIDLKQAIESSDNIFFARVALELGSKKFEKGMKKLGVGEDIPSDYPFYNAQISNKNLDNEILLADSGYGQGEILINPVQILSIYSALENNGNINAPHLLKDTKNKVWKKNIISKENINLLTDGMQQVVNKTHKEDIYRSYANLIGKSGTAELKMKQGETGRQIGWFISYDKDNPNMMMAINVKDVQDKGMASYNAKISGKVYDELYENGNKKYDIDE

Staphylococcus sp. = assay: Antibacterial activity against methicillin-resistant coagulase negative Staphylococci (MRCNS); type: functional

| Compound | MIC50 (Staphylococcus aureus) [µg/mL] | MIC90 (Staphylococcus aureus) [µg/mL] | IC50 (MecA) [nM] | MIC50 (Staphylococcus sp.) [µg/mL] | MIC90 (Staphylococcus sp.) [µg/mL] |
| --- | --- | --- | --- | --- | --- |
| C[C@@H](O)[C@H]1C(=O)N2C(C(=O)O)=C(c3ccc4c(c3)-c3ccc(C[N+]56CC[N+](CC(=O)Nc7ccc(CO)cc7)(CC5)CC6)cc3C4=O)[C@H](C)[C@H]12.[Cl-].[Cl-] | 1 | 2 | 2670 | 1 | 4 |
| COc1ccccc1NC(=O)C[N+]12CC[N+](Cc3ccc4c(c3)C(=O)c3ccc(C5=C(C(=O)O)N6C(=O)[C@H]([C@@H](C)O)[C@H]6[C@H]5C)cc3-4)(CC1)CC2.[Cl-].[Cl-] | 1 | 2 | 867 | 2 | 4 |
| C[C@@H](O)[C@H]1C(=O)N2C(C(=O)O)=C(c3ccc4c(c3)-c3ccc(C[N+]56CC[N+](CCOc7ccccc7)(CC5)CC6)cc3C4=O)[C@H](C)[C@H]12.[Cl-].[Cl-] | 1 | 2 | 566 | 2 | 4 |
| C[C@@H](O)[C@H]1C(=O)N2C(C(=O)O)=C(c3ccc4c(c3)-c3ccc(C[N+]56CC[N+](CC(=O)NC(C)(C)C)(CC5)CC6)cc3C4=O)[C@H](C)[C@H]12.[Cl-].[Cl-] | 2 | 4 | 3430 | 4 | 8 |
| CCC[N+]12CC[N+](Cc3ccc4c(c3)C(=O)c3ccc(C5=C(C(=O)O)N6C(=O)[C@H]([C@@H](C)O)[C@H]6[C@H]5C)cc3-4)(CC1)CC2.[Cl-].[Cl-] | 4 | 4 | 907 | 4 | 8 |
| C[C@@H](O)[C@H]1C(=O)N2C(C(=O)O)=C(c3ccc4c(c3)-c3ccc(C[N+]56CC[N+](CC(=O)N(C)C)(CC5)CC6)cc3C4=O)C[C@H]12.[Cl-].[Cl-] | 4 | 4 |  | 4 | 4 |
| C[C@@H](O)[C@H]1C(=O)N2C(C(=O)O)=C(c3ccc4c(c3)-c3ccc(C[N+]56CC[N+](C)(CC5)CC6)cc3C4=O)C[C@H]12.[Cl-].[Cl-] | 2 | 8 | 307 | 2 | 4 |
| C[C@@H](O)[C@H]1C(=O)N2C(C(=O)O)=C(c3ccc4c(c3)-c3ccc(C[N+]56CC[N+](CCO)(CC5)CC6)cc3C4=O)[C@H](C)[C@H]12.[Cl-].[Cl-] | 4 | 4 | 1030 | 4 | 8 |
| COc1cccc(NC(=O)C[N+]23CC[N+](Cc4ccc5c(c4)C(=O)c4ccc(C6=C(C(=O)O)N7C(=O)[C@H]([C@@H](C)O)[C@H]7[C@H]6C)cc4-5)(CC2)CC3)c1.[Cl-].[Cl-] | 1 | 1 | 2430 | 1 | 4 |
| C[C@@H](O)[C@H]1C(=O)N2C(C(=O)O)=C(c3ccc4c(c3)-c3ccc(C[N+]56CC[N+](CC(=O)c7ccccc7)(CC5)CC6)cc3C4=O)C[C@H]12.[Cl-].[Cl-] | 2 | 4 |  | 2 | 4 |
| C[C@@H](O)[C@H]1C(=O)N2C(C(=O)O)=C(c3ccc4c(c3)-c3ccc(C[N+]56CC[N+](CC(=O)NC7CCCC7)(CC5)CC6)cc3C4=O)[C@H](C)[C@H]12.[Cl-].[Cl-] | 2 | 4 | 1410 | 4 | 8 |
| C[C@@H](O)[C@H]1C(=O)N2C(C(=O)O)=C(c3ccc4c(c3)-c3ccc(C[N+]56CC[N+](Cc7ccccc7)(CC5)CC6)cc3C4=O)[C@H](C)[C@H]12.[Cl-].[Cl-] | 1 | 2 | 3250 | 2 | 8 |
| C[C@@H](O)[C@H]1C(=O)N2C(C(=O)O)=C(c3ccc4c(c3)-c3ccc(C[N+]56CC[N+](CCCO)(CC5)CC6)cc3C4=O)C[C@H]12.[Cl-].[Cl-] | 2 | 8 | 1270 | 4 | 4 |
| CNC(=O)C[N+]12CC[N+](Cc3ccc4c(c3)C(=O)c3ccc(C5=C(C(=O)O)N6C(=O)[C@H]([C@@H](C)O)[C@H]6[C@H]5C)cc3-4)(CC1)CC2.[Cl-].[Cl-] | 4 | 8 | 502 | 4 | 8 |
| CC(=O)c1ccc(NC(=O)C[N+]23CC[N+](Cc4ccc5c(c4)C(=O)c4ccc(C6=C(C(=O)O)N7C(=O)[C@H]([C@@H](C)O)[C@H]7[C@H]6C)cc4-5)(CC2)CC3)cc1.[Cl-].[Cl-] | 0.5 | 1 | 3150 | 1 | 4 |
| C[C@@H](O)[C@H]1C(=O)N2C(C(=O)O)=C(c3ccc4c(c3)-c3ccc(C[N+]56CC[N+](CC(=O)Nc7ccccc7)(CC5)CC6)cc3C4=O)C[C@H]12.[Cl-].[Cl-] | 0.5 | 2 | 468 | 1 | 1 |
| C[C@@H](O)[C@H]1C(=O)N2C(C(=O)O)=C(c3ccc4c(c3)-c3ccc(C[N+]56CC[N+](CC(=O)Nc7ccccc7)(CC5)CC6)cc3C4=O)[C@H](C)[C@H]12.[Cl-].[Cl-] | 2 | 2 | 1780 | 2 | 4 |
| C[C@@H](O)[C@H]1C(=O)N2C(C(=O)O)=C(c3ccc4c(c3)-c3ccc(C[N+]56CC[N+](CC(=O)Nc7cccc(C#N)c7)(CC5)CC6)cc3C4=O)[C@H](C)[C@H]12.[Cl-].[Cl-] | 0.5 | 1 | 752 | 1 | 2 |
| CC(C)NC(=O)C[N+]12CC[N+](Cc3ccc4c(c3)C(=O)c3ccc(C5=C(C(=O)O)N6C(=O)[C@H]([C@@H](C)O)[C@H]6[C@H]5C)cc3-4)(CC1)CC2.[Cl-].[Cl-] | 2 | 4 | 1240 | 4 | 8 |
| CCCNC(=O)C[N+]12CC[N+](Cc3ccc4c(c3)C(=O)c3ccc(C5=C(C(=O)O)N6C(=O)[C@H]([C@@H](C)O)[C@H]6[C@H]5C)cc3-4)(CC1)CC2.[Cl-].[Cl-] | 2 | 4 | 1230 | 4 | 8 |
| C[C@@H](O)[C@H]1C(=O)N2C(C(=O)O)=C(c3ccc4c(c3)-c3ccc(C[N+]56CC[N+](CC(=O)Nc7cccc(CO)c7)(CC5)CC6)cc3C4=O)[C@H](C)[C@H]12.[Cl-].[Cl-] | 1 | 2 | 1600 | 1 | 4 |
| C[C@@H](O)[C@H]1C(=O)N2C(C(=O)O)=C(c3ccc4c(c3)-c3ccc(C[N+]56CC[N+](CC(=O)Nc7ccccc7C#N)(CC5)CC6)cc3C4=O)[C@H](C)[C@H]12.[Cl-].[Cl-] | 1 | 2 | 1100 | 2 | 4 |
| C[C@@H](O)[C@H]1C(=O)N2C(C(=O)O)=C(c3ccc4c(c3)-c3ccc(C[N+]56CC[N+](CCCO)(CC5)CC6)cc3C4=O)[C@H](C)[C@H]12.[Cl-].[Cl-] | 2 | 4 | 729 | 4 | 8 |
| C[C@@H](O)[C@H]1C(=O)N2C(C(=O)O)=C(c3ccc4c(c3)-c3ccc(C[N+]56CC[N+](CC(=O)Nc7ccccc7C(N)=O)(CC5)CC6)cc3C4=O)[C@H](C)[C@H]12.[Cl-].[Cl-] | 2 | 4 | 1020 | 2 | 8 |
| C[C@@H](O)[C@H]1C(=O)N2C(C(=O)O)=C(c3ccc4c(c3)-c3ccc(C[N+]56CC[N+](CC(=O)NCc7ccccc7)(CC5)CC6)cc3C4=O)[C@H](C)[C@H]12.[Cl-].[Cl-] | 1 | 2 | 1320 | 1 | 4 |
| COc1ccc(NC(=O)C[N+]23CC[N+](Cc4ccc5c(c4)C(=O)c4ccc(C6=C(C(=O)O)N7C(=O)[C@H]([C@@H](C)O)[C@H]7[C@H]6C)cc4-5)(CC2)CC3)cc1.[Cl-].[Cl-] | 1 | 1 | 1190 | 1 | 4 |
| CC(=O)C[N+]12CC[N+](Cc3ccc4c(c3)C(=O)c3ccc(C5=C(C(=O)O)N6C(=O)[C@H]([C@@H](C)O)[C@H]6C5)cc3-4)(CC1)CC2.[Cl-].[Cl-] | 2 | 8 |  | 4 | 4 |
| COC(=O)C[N+]12CC[N+](Cc3ccc4c(c3)C(=O)c3ccc(C5=C(C(=O)O)N6C(=O)[C@H]([C@@H](C)O)[C@H]6C5)cc3-4)(CC1)CC2.[Cl-].[Cl-] | 8 | 16 |  | 16 | 16 |
| CNC(=O)C[N+]12CC[N+](Cc3ccc4c(c3)C(=O)c3ccc(C5=C(C(=O)O)N6C(=O)[C@H]([C@@H](C)O)[C@H]6C5)cc3-4)(CC1)CC2.[Cl-].[Cl-] | 2 | 8 |  | 2 | 4 |
